Measured values from publication PMC7294993 (Science signaling, 2020).

Tests used:
MRCKA (CDC42BPA) = MRCKA (CDC42BPA) (Homo sapiens, UniProt Q5VT25); assay: in vitro radioisotope […] kinase assay, 10-dose; format: biochemical
MRCKB (CDC42BPB) = MRCKB (CDC42BPB) (Homo sapiens, UniProt Q9Y5S2); assay: in vitro radioisotope […] kinase assay, 10-dose; format: biochemical
Chain of MRCKB (CDC42BPB) (Q9Y5S2 whole entry): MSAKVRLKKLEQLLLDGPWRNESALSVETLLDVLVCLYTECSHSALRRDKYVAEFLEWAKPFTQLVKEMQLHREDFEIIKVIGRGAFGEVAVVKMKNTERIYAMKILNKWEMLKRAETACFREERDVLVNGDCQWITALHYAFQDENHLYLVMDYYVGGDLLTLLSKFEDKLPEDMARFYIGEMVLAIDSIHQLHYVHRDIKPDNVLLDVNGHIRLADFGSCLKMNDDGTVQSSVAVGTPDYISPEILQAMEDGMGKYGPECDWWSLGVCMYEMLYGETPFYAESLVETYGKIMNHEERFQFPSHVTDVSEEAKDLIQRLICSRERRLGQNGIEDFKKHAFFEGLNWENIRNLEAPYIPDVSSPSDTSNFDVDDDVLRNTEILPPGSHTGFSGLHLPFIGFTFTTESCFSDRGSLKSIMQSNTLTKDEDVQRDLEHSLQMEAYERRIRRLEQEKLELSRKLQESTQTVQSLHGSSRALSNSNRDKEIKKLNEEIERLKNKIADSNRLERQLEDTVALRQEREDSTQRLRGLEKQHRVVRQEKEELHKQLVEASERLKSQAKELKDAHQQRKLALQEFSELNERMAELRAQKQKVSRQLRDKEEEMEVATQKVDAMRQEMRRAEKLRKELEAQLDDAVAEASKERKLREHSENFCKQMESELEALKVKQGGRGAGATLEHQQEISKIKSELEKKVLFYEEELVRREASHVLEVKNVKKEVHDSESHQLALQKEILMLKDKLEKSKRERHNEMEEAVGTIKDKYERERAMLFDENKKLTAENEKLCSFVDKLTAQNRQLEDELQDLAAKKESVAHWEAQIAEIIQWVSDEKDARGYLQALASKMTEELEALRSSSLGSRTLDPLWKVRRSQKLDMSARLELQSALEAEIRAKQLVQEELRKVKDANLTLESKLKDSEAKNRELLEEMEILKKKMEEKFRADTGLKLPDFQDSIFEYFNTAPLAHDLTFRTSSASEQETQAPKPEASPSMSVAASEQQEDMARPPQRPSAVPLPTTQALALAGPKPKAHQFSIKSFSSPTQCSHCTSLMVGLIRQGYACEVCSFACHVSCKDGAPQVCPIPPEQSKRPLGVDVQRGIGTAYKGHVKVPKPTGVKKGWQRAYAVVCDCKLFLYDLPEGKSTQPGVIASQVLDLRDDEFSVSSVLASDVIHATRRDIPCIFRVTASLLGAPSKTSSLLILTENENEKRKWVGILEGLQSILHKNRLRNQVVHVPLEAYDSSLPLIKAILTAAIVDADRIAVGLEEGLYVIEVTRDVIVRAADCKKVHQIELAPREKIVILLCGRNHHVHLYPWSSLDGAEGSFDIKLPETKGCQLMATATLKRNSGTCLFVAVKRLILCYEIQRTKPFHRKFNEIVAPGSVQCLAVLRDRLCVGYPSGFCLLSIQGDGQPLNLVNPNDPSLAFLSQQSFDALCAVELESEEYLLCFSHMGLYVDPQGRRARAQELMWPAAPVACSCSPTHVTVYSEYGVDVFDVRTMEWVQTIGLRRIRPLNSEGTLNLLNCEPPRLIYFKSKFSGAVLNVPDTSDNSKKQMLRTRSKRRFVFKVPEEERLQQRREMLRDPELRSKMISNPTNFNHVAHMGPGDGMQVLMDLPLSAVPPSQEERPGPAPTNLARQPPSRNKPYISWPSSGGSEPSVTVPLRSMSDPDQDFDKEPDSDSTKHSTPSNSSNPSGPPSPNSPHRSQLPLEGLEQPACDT

Chain of MRCKA (CDC42BPA) (Q5VT25 whole entry): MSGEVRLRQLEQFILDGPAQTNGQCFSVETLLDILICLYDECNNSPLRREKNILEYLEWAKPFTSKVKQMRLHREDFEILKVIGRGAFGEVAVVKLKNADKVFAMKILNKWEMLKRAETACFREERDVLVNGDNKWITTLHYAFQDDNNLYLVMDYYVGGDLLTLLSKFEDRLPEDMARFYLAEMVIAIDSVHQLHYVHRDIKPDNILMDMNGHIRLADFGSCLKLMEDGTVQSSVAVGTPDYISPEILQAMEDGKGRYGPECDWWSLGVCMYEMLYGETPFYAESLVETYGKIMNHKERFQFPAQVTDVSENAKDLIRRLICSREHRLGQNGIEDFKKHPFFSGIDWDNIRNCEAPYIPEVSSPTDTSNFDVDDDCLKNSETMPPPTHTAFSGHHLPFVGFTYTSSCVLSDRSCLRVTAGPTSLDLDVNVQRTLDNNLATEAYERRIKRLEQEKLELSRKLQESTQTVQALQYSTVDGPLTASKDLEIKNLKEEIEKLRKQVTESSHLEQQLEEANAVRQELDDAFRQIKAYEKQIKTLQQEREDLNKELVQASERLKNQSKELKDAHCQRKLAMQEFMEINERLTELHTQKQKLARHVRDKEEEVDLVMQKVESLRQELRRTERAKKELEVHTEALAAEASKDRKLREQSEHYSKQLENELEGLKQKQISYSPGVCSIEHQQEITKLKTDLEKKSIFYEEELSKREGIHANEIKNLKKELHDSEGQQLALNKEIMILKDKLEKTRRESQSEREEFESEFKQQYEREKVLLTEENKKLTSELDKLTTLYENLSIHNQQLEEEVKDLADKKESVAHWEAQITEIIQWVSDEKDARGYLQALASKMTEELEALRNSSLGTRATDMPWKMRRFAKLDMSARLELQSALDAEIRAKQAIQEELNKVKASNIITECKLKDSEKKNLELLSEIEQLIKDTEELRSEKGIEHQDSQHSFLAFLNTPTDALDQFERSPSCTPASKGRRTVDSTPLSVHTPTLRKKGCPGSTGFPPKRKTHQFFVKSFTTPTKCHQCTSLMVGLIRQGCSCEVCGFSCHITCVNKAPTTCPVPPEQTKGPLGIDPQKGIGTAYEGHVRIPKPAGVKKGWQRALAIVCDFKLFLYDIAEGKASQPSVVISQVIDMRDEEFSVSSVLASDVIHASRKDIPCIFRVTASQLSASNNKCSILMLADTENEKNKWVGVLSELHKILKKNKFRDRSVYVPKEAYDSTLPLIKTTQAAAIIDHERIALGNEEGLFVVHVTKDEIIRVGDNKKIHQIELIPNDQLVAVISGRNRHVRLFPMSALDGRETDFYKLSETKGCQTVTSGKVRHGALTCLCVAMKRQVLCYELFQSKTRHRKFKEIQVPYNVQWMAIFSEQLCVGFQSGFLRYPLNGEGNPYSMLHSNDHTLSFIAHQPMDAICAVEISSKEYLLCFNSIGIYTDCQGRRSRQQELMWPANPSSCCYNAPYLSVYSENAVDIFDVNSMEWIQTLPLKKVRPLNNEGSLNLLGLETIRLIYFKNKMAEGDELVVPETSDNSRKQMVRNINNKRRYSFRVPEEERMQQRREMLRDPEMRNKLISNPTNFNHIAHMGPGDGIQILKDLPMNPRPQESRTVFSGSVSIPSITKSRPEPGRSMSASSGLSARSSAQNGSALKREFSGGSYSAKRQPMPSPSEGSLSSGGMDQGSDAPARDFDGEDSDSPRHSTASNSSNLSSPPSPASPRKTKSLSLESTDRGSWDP

EC50 (MRCKA (CDC42BPA)): 65 nM
EC50 (MRCKB (CDC42BPB)): 72 nM
Substance: BDP9066
